Assay results as given in patent US12319694B2, “Heterocyclic nitrogen-containing purine derivatives, pharmaceutical preparations containing these derivatives and their use in neuroprotection” (UNIVERZITA PALACKEHO, priority 2019, dated 2025).

Legend:
[1] = system: SH-SY5Y human neuroblastoma cell line (differentiated phenotype); assay: Calcein AM viability test on ATRA-differentiated SH-SY5Y cells; format: cell-based; conditions: 24 h, DMSO control = 100%
Protocol: (§1) The SH-SY5Y human neuroblastoma cell line obtained as kind gift from Walter d'Acunto (originally purchased from ATCC—American Type Culture Collection (Manassas, VA, USA) was cultivated in Dulbecco's modified Eagle's Medium and Ham's F12 Nutrient Mixture (DMEM:F-12, 1:1), supplemented with 10% fetal bovine serum (FBS) and 1% penicillin and streptomycin at 37° C. in a humidified atmosphere 5% CO2, 95% air in passage limit up to ATCC+15. The assay was performed in 96-well microplate with 7000 SH-SY5Y cells per well. Next day, SH-SY5Y underwent all-trans retinoic acid (ATRA)-differentiation for 48 h (ATRA 10 μM). After 48 h, old DMEM/F12 media was removed by fresh media containing tested compounds at 0.1, 1 and 10 μM concentrations for 24 h. The tested compounds were dissolved in DMSO were added into the medium. The maximum concentration of DMSO in media was kept below 0.1% (v/v). The cell viability was measured by Calcein AM (1 mg/ml ThermoFisher) viability assay. Solution of Calcein AM in PBS (0.5 uM) was pipetted to cells and incubated for 50 minutes. After that the fluorescence was measured at 488/517 nm (excitation/emission) using microplate reader Infinite M200 (TECAN). Calcein AM assay is based on the dye-intracellular-esterase cleavage of non-fluorescent dye (Calcein AM) by living cells to fluorescent dye (Calcein), while dyeing cells that lose such ability. The values in Table 4 show % of viability, relative to control of all tested compounds. The control (medium with DMSO, <0.1% (v/v)) was postulated as 100% viability (see the first line of the table).

[2] = system: SH-SY5Y human neuroblastoma cell line (differentiated phenotype); assay: Viability test, salsolinol-induced model of Parkinson's disease in differentiated SH-SY5Y (Calcein AM); format: cell-based; conditions: 24 h
Protocol: as §1
Similarly, to the previous test the assay was performed in 96-well microplates with 7000 SH-SY5Y cells per well. Day after the seeding of cells, SH-SY5Y underwent all-trans retinoic acid (ATRA)-differentiation for 48 h (ATRA 10 μM). After 48 h, old DMEM/F12 media was removed by fresh media containing 500 μM dopaminergic neurotoxin Salsolinol (SAL) without or with tested compounds at 0.1, 1 and 10 μM concentrations. […] After 24 h the cell viability was measured by Calcein AM viability assay.

[3] = system: SH-SY5Y human neuroblastoma cell line; assay: Oxidative stress measurement (dihydroethidium, superoxide) in SH-SY5Y, salsolinol-induced model of PD; format: cell-based; conditions: 6 h
Protocol: The assay was performed in 96-well microplate with 7000 cells/well. Next day, SH-SY5Y underwent differentiation protocol for 48 h see above. Treatment procedure remained the same as in previous section (Cell treatment and viability/cytotoxicity assays). Additionally, oxidative stress (OS) inducers such as 6-hydroxydopamine (6-OHDA) and glutamate (Glu) alone were used as […]. Negative controls determined threshold of excessive OS. […] After 30 minutes, DHE was read at 500 nm/580 nm (excitation/emission). DHE is cell permeable dye which is selective toward superoxide radical detection.

[4] = Radical scavenging activity by ORAC assay; conditions: NAUC relative to trolox; mean ± SD (n = 3)
Protocol: The ability of compounds to scavenge free radicals in vitro was determined by Oxygen Radical Absorbance Capacity (ORAC) method. In brief, fluorescein (100 μL, […]) and 25 μL of tested compound solution were added into each working well in a 96-well microplate preincubated at 37° C. Thereafter, 25 μL of 250 mM 2,2′-azobis(2-amidino-propan)dihydrochloride (AAPH) was quickly added, microplate was shaken for 5 s and the fluorescence (Ex. 485 nm, Em. 510 nm) was read every 3 min over 90 min by using microplate reader Infinite 200 (TECAN, Switzerland). The NAUC value (Net Area Under Curve) was used to express antioxidant activity relative to trolox (hydrophilic equivalent of vitamin E postulated as a standard). Substances with an ORAC value greater than 0 actively trap free radicals.

Nrf2 = assay: Activation of Nrf2-dependent expression, EpRE-LUX reporter cell line; format: cell-based; conditions: 24 h; tested at 100, 10, 1 and 0.1 μM, concentration of the printed value not stated; mean ± SD (n = 3)
Protocol: The ability of compounds to activate Nrf2-dependent expression was determined by EpRE-LUX reporter cell line. In brief, compounds at 100, 10, 1 and 0.1 μM concentrations of the tested compounds were incubated for 24 h with the cells. After cells lysis (10 mM Tris, 2 mM DTT), a buffer containing 0.2 mM luciferin was added to start luminescent reaction. The increase in luminescence was measured with microplate reader Infinite M200 (TECAN). Compounds with Nrf2 value higher than 0 are strong Nrf2 activators and thus will be useful agents for the treatment of neurodegenerative diseases associated with oxidative stress.

[5] = Calcein AM viability test on ATRA-differentiated SH-SY5Y cells; format: cell-based, human; conditions: human, ATRA-differentiated SH-SY5Y neuroblastoma cells, DMSO control = 100%, read-out: % of viability, relative to control
Protocol: as §1

[6] = 0.1 μM compound with 500 μM Salsolinol
[7] = 1 μM compound with 500 μM Salsolinol
[8] = 10 μM compound with 500 μM Salsolinol

| SMILES | % of viability, relative to control ([1]; 0.1 μM compound) [%] | % of viability, relative to control ([1]; 1 μM compound) [%] | % of viability, relative to control ([1]; 10 μM compound) [%] | Neuroprotective effect (% of control) [2, 6] | Neuroprotective effect (% of control) [2, 7] | Neuroprotective effect (% of control) [2, 8] | Oxidative stress (% of control) ([3]; 1 μM compound with SAL 500 μM) | Oxidative stress (% of control) ([3]; 10 μM compound with SAL 500 μM) | ORAC (compound/trolox) [4] [compound/trolox] | Nrf2 (relative luminiscence) (Nrf2) | viability at 24 h, 0.1 µM ([5]; 0.1 μM compound) [%] | viability at 24 h, 1 µM ([5]; 1 μM compound) [%] | viability at 24 h, 10 µM ([5]; 10 μM compound) [%] | activity at 1 µM ([3]; Homo sapiens, SH-SY5Y, 1 μM compound with SAL 500 μM, read-out: Oxidative stress (% of control)) [%] | activity at 10 µM ([3]; Homo sapiens, SH-SY5Y, 10 μM compound with SAL 500 μM, read-out: Oxidative stress (% of control)) [%] | reduction of oxidative stress induced by Salsolinol (in words) ([3]; SAL 500 μM, compounds 1 and 10 μM) |
| --- | --- | --- | --- | --- | --- | --- | --- | --- | --- | --- | --- | --- | --- | --- | --- | --- |
| COc1cccc(Cn2cnc3c(N4CCCC4)nc(N4CCCC4)nc32)c1 [Compound 42] | 112.01 | 127.94 | 138.52 | 6.86 % of control | 15.44 % of control | 20.05 % of control | 171.55 % of control | 173.94 % of control | 0.029 ± 0.002 | 0.00 ± 0.00 | – | – | – | – | – | – |
| c1ccc(Cn2cnc3c(N4CCC4)nc(N4CCC4)nc32)cc1 [Compound 1] | 104.80 | 114.03 | 145.94 | N/A (N/A = no protection) | 3.03 % of control | 26.08 % of control | 124.48 % of control | 157.22 % of control | 0.052 ± 0.002 | 0.27 ± 0.06 | – | – | – | – | – | – |
| COc1ccccc1Cn1cnc2c(N3CCCC3)nc(N3CCCC3)nc21 [Compound 35] | 104.22 | 118.77 | 135.02 | 1.19 % of control | 13.01 % of control | 19.11 % of control | 161.97 % of control | 214.57 % of control | 0.033 ± 0.001 | 0.04 ± 0.00 | – | – | – | – | – | – |
| Oc1ccc(Cn2cnc3c(N4CCCC4)nc(N4CCCC4)nc32)cc1 [Compound 30, 9-(4-hydroxybenzyl)-2,6-di(pyrrolidin-1-yl)-9H-purine] | – | – | – | 10.62 % of control | – | 26.41 % of control | – | – | 0.422 ± 0.034 | 0.29 ± 0.11 | 99.5 | 111 | 123 | 95.9 | 97.4 | highest potency toward the reduction of oxidative stress |
